In PubChem BioAssay (NCI):
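1) Cells in 96-well plates. 2) Compound, 48 h, 5 concentrations. 3) Linear interpolation between surrounding doses. 4) Unreached endpoint = highest concentration. Abbreviation: GI50, concentration required for 50% inhibition of growth. TGI denotes the concentration required for complete inhibition of growth.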

What was measured:
Test in all cases: NCI anticancer screen, dose series, 48 h
[1] = system: SK-MEL-5 melanoma
[2] = system: HCT-15 colon
[3] = system: DU-145 prostate
[4] = system: SN12C renal
[5] = system: MDA-MB-231 breast
[6] = system: MCF7 breast
[7] = system: HCC-2998 colon
[8] = system: ACHN renal
[9] = system: K-562 leukemia
[10] = system: A498 renal
[11] = system: SF-268 CNS
[12] = system: NCI/ADR-RES ovarian
[13] = system: LOX IMVI melanoma
[14] = system: SK-MEL-2 melanoma
[15] = system: HT29 colon
[16] = system: RPMI-8226 leukemia
[17] = system: IGROV1 ovarian
[18] = system: OVCAR-5 ovarian
[19] = system: RXF 393 renal
[20] = system: UACC-62 melanoma
[21] = system: SNB-75 CNS
[22] = system: SF-295 CNS
[23] = system: UACC-257 melanoma
[24] = system: SF-539 CNS
[25] = system: MDA-MB-468 breast
[26] = system: BT-549 breast
[27] = system: COLO 205 colon
[28] = system: SW-620 colon
[29] = system: M14 melanoma

COc1ccc(-c2nc(S(=O)(=O)c3ccc(C)cc3)c(S(C)(=O)=O)o2)cc1 gave a GI50 [1] of 12.8 µM, a TGI [1] of 26.2 µM and a GI50 [2] of 1.96 µM. The TGI [2] was 4.2 µM, the GI50 [3] was 2.57 µM and the TGI [3] was 6.82 µM. For the same molecule, the GI50 [4] was 4.94 µM, the TGI [4] was 17.6 µM and the GI50 [5] was 1.73 µM. It also gave a TGI [5] of 3.35 µM, a GI50 [6] of 2.14 µM and a TGI [6] of 6.1 µM. For the same molecule, the GI50 [7] was 7.61 µM, the TGI [7] was 21.1 µM and the GI50 [8] was 1.72 µM. The TGI [8] was 3.11 µM, the GI50 [9] was 2.91 µM and the TGI [9] was over 100 µM. It also gave a GI50 [10] of 14.3 µM, a TGI [10] of 27.4 µM and a GI50 [11] of 12.5 µM. It also gave a TGI [11] of 30 µM, a GI50 [12] of 12 µM and a TGI [12] of 37.5 µM. The GI50 [13] was 1.56 µM, the TGI [13] was 2.96 µM and the GI50 [14] was 14.3 µM. The TGI [14] was 27.7 µM, the GI50 [15] was 2.09 µM and the TGI [15] was 4.37 µM. It also gave a GI50 [16] of 3.05 µM, a TGI [16] of 17.3 µM and a GI50 [17] of 7.16 µM. For the same molecule, the TGI [17] was 20.4 µM, the GI50 [18] was 10.9 µM and the TGI [18] was 23.1 µM. For the same molecule, the GI50 [19] was 1.47 µM, the TGI [19] was 2.94 µM and the GI50 [20] was 7.59 µM. The TGI [20] was 20.4 µM, the GI50 [21] was 11.3 µM and the TGI [21] was 23.7 µM. It also gave a GI50 [22] of 14.6 µM, a TGI [22] of 27.8 µM and a GI50 [23] of 9.8 µM. For the same molecule, the TGI [23] was 23.1 µM, the GI50 [24] was 1.83 µM and the TGI [24] was 3.8 µM. It also gave a GI50 [25] of 1.6 µM, a TGI [25] of 3.23 µM and a GI50 [26] of 3.39 µM. The TGI [26] was 10 µM, the GI50 [27] was 2.21 µM and the TGI [27] was 4.95 µM. It also gave a GI50 [28] of 1.66 µM, a TGI [28] of 3.32 µM and a GI50 [29] of 1.95 µM. It also gave a TGI [29] of 4.59 µM.
